Reference: patent US12365658B2, “Benzothia(di)azepine compounds and their use as bile acid modulators” (Albireo AB, priority 2021, dated 2025)

Assays:
Human LBAT = molecular target: T1, Human LBAT (Homo sapiens, UniProt Q14973); test: LBAT (h/m) assay, human LBAT-overexpressing cells, 3H-taurocholic acid uptake; format: cell-based; details: 0.3 μM 3H-taurocholic acid and 7.5 μM cold taurocholic acid, 20 minutes, read-out: hLBAT IC50
T1 construct: expressed in transfected cells; kept under Geneticin selection
T1 sequence (Q14973 1-349): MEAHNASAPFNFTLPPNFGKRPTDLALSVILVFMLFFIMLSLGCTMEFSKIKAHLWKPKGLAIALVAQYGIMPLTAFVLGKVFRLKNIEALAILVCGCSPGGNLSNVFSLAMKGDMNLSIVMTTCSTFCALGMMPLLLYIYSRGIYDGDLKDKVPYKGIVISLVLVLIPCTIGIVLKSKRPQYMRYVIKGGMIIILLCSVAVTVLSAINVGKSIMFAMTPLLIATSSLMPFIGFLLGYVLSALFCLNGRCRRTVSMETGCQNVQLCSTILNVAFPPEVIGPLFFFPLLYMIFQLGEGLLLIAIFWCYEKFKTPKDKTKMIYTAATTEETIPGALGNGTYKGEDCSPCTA
Procedure: LBAT (h/m) Assay Protocol
20,000 cells (Human or Mouse LBAT-overexpressing cells) were seeded in 96-wells plate (Corning CLS3809) in 100 μL MEM-alpha medium (Gibco 12571-063) supplemented with 10% FBS (Gibco 10438026) containing Geneticin (Gibco 10131-027) (1 mg/mL) and incubated at 37° C. in 5% CO2 for 24 hours. After incubation, media was decanted from the wells and cells were washed two times with 300 μL of basal MEM-alpha medium (FBS-free). After decanting basal MEM-alpha medium each time, plates were tapped against paper towel to ensure maximum removal of residual media.
For human LBAT, incubation mix was prepared by adding test inhibitor dilutions (3-fold serial dilution in DMSO (Sigma D2650), 10 points) in MEM-alpha (without FBS) containing 0.3 μM 3H-taurocholic acid (ARC ART-1368) and 7.5 μM cold taurocholic acid (Sigma T4009) (maintaining 0.2% final DMSO concentration). For mouse LBAT, incubation mix was prepared by adding test inhibitor dilutions (3-fold serial dilution in DMSO, 10 points) in MEM-alpha (without FBS) containing 0.3 μM 3H-taurocholic acid and 25 μM cold taurocholic acid maintaining 0.2% final DMSO concentration).
50 μL of incubation mix containing test inhibitors was then added to the wells (in duplicate) and the plates were incubated for 20 minutes in a CO2 incubator at 37° C. After incubation, the reaction was stopped by keeping the plates on ice water mix for 2-3 minutes and then the incubation mix was aspirated completely from the wells. The wells were washed two times with 250 μL of chilled unlabelled 1 mM taurocholic acid dissolved in HEPES (Gibco 15630080)-buffered (10 mM) HBSS (Gibco 14175079) (pH 7.4). The plates were tapped against a paper towel after every wash to ensure maximum removal of blocking buffer.
100 μL of MicroScint-20 (PerkinElmer 6013621) was added to the wells and kept overnight at room temperature before reading the plates in TopCount NXT™ Microplate Scintillation and Luminescence Counter from PerkinElmer under 3H Test protocol (set at 120 seconds reading time per well, with normal plate orientation).
(§1) Preparation of Test Compound Dilutions
(§2) All test compounds were provided in powder form at room temperature. 10 mM DMSO stocks of the test compounds were prepared, aliquoted and stored at −20° C. From the 10 mM DMSO stock of the compounds, a 3-fold serial dilution in DMSO was prepared to get a total of 10 dilutions of the test compounds. 0.5 μL of this dilution in DMSO was added to 250 μL of FBS-free basal media containing 3H-taurocholic acid and cold taurocholic acid to prepare the incubation mixture.

Human IBAT = molecular target: T2, Human IBAT (Homo sapiens, UniProt Q12908); test: IBAT (h/m) assay, human IBAT-overexpressing cells, 3H-taurocholic acid uptake; format: cell-based; details: 0.25 μM 3H-taurocholic acid and 5 μM cold taurocholic acid, 20 minutes, highest test concentration 10 μM, read-out: hIBAT IC50
T2 construct: expressed in transfected cells; kept under Puromycin selection
T2 sequence (Q12908 1-348): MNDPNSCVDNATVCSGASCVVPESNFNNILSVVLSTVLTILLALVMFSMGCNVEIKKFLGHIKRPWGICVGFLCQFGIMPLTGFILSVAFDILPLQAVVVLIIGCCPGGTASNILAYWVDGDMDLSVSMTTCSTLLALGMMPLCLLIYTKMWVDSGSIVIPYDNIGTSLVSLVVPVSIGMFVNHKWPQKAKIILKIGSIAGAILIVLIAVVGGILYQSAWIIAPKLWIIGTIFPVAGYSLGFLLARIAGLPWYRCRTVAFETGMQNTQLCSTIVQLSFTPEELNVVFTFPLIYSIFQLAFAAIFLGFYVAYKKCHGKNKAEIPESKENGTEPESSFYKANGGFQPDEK
Procedure: IBAT (h/m) Assay Protocol
10,000 cells (Human or Mouse IBAT-overexpressing cells) were seeded in 96-wells plate (Corning CLS3809) in 200 μL MEM-alpha medium (Gibco 12571-063) supplemented with 10% FBS (Gibco 10438026) containing Puromycin (Gibco A1113803) (10 μg/mL) and incubated at 37° C. in 5% CO2 for 48 hours. After incubation, media was decanted from the wells and cells were washed two times with 300 μL of basal MEM-alpha medium (FBS-free). After decanting basal MEM-alpha medium each time, plates were tapped against paper towel to ensure maximum removal of residual media. Test inhibitor dilutions (highest test concentration being 10 μM, 3-fold serial dilution, 10 points) prepared in DMSO (Sigma D2650) were added in incubation mix (maintaining 0.2% final DMSO concentration) containing 0.25 μM 3H-taurocholic acid (ARC ART-1368) and 5 μM of cold taurocholic acid (Sigma T4009). 50 μL of incubation mix containing test inhibitors was then added to the wells (in duplicate) and the plates were incubated for 20 minutes in a CO2 incubator at 37° C. After incubation, the reaction was stopped by keeping the plates on ice water mix for 2-3 minutes and then the incubation mix was aspirated completely from the wells. The wells were washed two times with 250 μL of chilled unlabelled 1 mM taurocholic acid dissolved in HEPES (Gibco 15630080)-buffered (10 mM) HBSS (Gibco 14175079) (pH 7.4). The plates were tapped against a paper towel after every wash to ensure maximum removal of blocking buffer.
100 μL of MicroScint-20 (PerkinElmer 6013621) was added to the wells and kept overnight at room temperature before reading the plates in TopCount NXT™ Microplate Scintillation and Luminescence Counter from PerkinElmer under 3H Test protocol (set at 120 seconds reading time per well).
as §1, §2

SMILES	IC50 (Human LBAT)	IC50 (Human IBAT)
CCCCC1CN(c2ccccc2)c2cc(SC)c(OCC(C)(C)C(=O)O)cc2S(=O)(=O)N1C (single isomer, unassigned) [2, enantiomer 1]	2.28 µM	≥ 10 µM
CCCCC1CN(c2ccccc2)c2cc(SC)c(OCC3(C(=O)O)CC3)cc2S(=O)(=O)N1C (single isomer, unassigned) [4, enantiomer 1]	0.673 µM	≥ 10 µM
CCCCC1CN(c2ccccc2)c2cc(SCC)c(OCC(C)(C)C(=O)O)cc2S(=O)(=O)N1C (single isomer, unassigned) [6, enantiomer 1]	0.536 µM	–
CCCCC1CN(c2ccccc2)c2cc(SCC)c(OCC3(C(=O)O)CC3)cc2S(=O)(=O)N1C (single isomer, unassigned) [8, enantiomer 2]	0.591 µM	4.97 µM
CCCCC1CN(c2ccc(F)cc2)c2cc(SCC)c(OCC3(C(=O)O)CC3)cc2S(=O)(=O)N1 (single isomer, unassigned) [19, enantiomer 2]	0.106 µM	> 3.33 µM
CCCCC1CN(c2ccccc2)c2cc(SC)c(OCC(F)(F)C(=O)O)cc2S(=O)(=O)N1C (single isomer, unassigned) [21, enantiomer 1]	> 0.333 µM	> 10 µM
CCCCC1CN(c2ccccc2)c2cc(SC)c(OCCC(=O)O)cc2S(=O)(=O)C1 (single isomer, unassigned) [26, enantiomer 1]	0.059 µM	–
CCCCC1CN(c2ccccc2)c2cc(SC)c(OCC(OC)C(=O)O)cc2S(=O)(=O)N1C (single isomer, unassigned) [31, stereoisomer 1]	5.68 µM	–
CCCCC1CN(c2ccccc2)c2cc(SC)c(OCC(OC)C(=O)O)cc2S(=O)(=O)N1C (single isomer, unassigned) [31, stereoisomer 2]	0.022 µM	2.09 µM
CCCCC1CN(c2ccccc2)c2cc(SC)c(OCC(OC)C(=O)O)cc2S(=O)(=O)N1C (single isomer, unassigned) [32, diastereomer 2]	0.032 µM	4.78 µM
CCCCC1CN(c2ccccc2)c2cc(SC)c(OCC(C)(C)C(=O)O)cc2S(=O)(=O)N1C (centres unmarked) [Example 1, 3-((3-Butyl-2-methyl-7-(methylthio)-1,1-dioxido-5-phenyl-2,3,4,5-tetrahydro-1,2,5-benzothiadiazepin-8-yl)oxy)-2,2-dimethylpropanoic acid]	0.0098 µM	–
CCCCC1CN(c2ccc(F)cc2)c2cc(SC)c(OCC(C)(C)C(=O)O)cc2S(=O)(=O)C1 (centres unmarked) [Example 9, 3-((3-butyl-5-(4-fluorophenyl)-7-(methylthio)-1,1-dioxido-2,3,4,5-tetrahydro-1,5-benzothiazepin-8-yl)oxy)-2,2-dimethylpropanoic acid]	0.0053 µM	2.7 µM
CCCCC1CN(c2ccc(F)cc2)c2cc(SC)c(OCC3(C(=O)O)CC3)cc2S(=O)(=O)C1 (centres unmarked) [Example 10, 1-(((3-butyl-5-(4-fluorophenyl)-7-(methylthio)-1,1-dioxido-2,3,4,5-tetrahydro-1,5-benzothiazepin-8-yl)oxy)methyl)cyclopropane-1-carboxylic acid]	0.01 µM	0.678 µM
CCCCC1CN(c2ccc(F)cc2)c2cc(SC)c(OCC3(C(=O)O)CC3)cc2S(=O)(=O)N1C (centres unmarked) [Example 11, 1-(((3-butyl-5-(4-fluorophenyl)-2-methyl-7-(methylthio)-1,1-dioxido-2,3,4,5-tetrahydro-1,2,5-benzothiadiazepin-8-yl)oxy)methyl)cyclopropane-1-carboxylic acid]	0.0045 µM	0.167 µM
CCCCC1CN(c2ccccc2)c2cc(SCC)c(OCC3(C(=O)O)CC3)cc2S(=O)(=O)N1 (centres unmarked) [Example 15, 1-(((3-butyl-7-(ethylthio)-1,1-dioxido-5-phenyl-2,3,4,5-tetrahydro-1,2,5-benzothiadiazepin-8-yl)oxy)methyl)cyclopropane-1-carboxylic acid]	0.0042 µM	> 3.33 µM
CCCCC1CN(c2ccc(F)cc2)c2cc(SC)c(OCC3(C(=O)O)CC3)cc2S(=O)(=O)N1 (centres unmarked) [Example 16, 1-(((3-butyl-5-(4-fluorophenyl)-7-(methylthio)-1,1-dioxido-2,3,4,5-tetrahydro-1,2,5-benzothiadiazepin-8-yl)oxy)methyl)cyclopropane-1-carboxylic acid]	0.0034 µM	0.464 µM
CCCCC1CN(c2ccc(F)cc2)c2cc(SCC)c(OCC3(C(=O)O)CC3)cc2S(=O)(=O)N1 (centres unmarked) [Example 18, 1-(((3-butyl-7-(ethylthio)-5-(4-fluorophenyl)-1,1-dioxido-2,3,4,5-tetrahydro-1,2,5-benzothiadiazepin-8-yl)oxy)methyl)cyclopropane-1-carboxylic acid]	0.0033 µM	0.46 µM
CCCCC1CN(c2ccccc2)c2cc(SC)c(OCC(F)(F)C(=O)O)cc2S(=O)(=O)N1C (centres unmarked) [Example 20, 3-((3-butyl-2-methyl-7-(methylthio)-1,1-dioxido-5-phenyl-2,3,4,5-tetrahydro-1,2,5-benzothiadiazepin-8-yl)oxy)-2,2-difluoropropanoic acid]	0.0011 µM	0.259 µM
CCCCC1CN(c2ccccc2)c2cc(SC)c(OCCC(=O)O)cc2S(=O)(=O)C1 (centres unmarked) [Example 25, 3-((3-butyl-7-(methylthio)-1,1-dioxido-5-phenyl-2,3,4,5-tetrahydro-1,5-benzothiazepin-8-yl)oxy)propanoic acid]	0.093 µM	–
CCCCC1CN(c2ccccc2)c2cc(SC)c(OCC(O)C(=O)O)cc2S(=O)(=O)C1 (centres unmarked) [Example 28, 3-((3-butyl-7-(methylthio)-1,1-dioxido-5-phenyl-2,3,4,5-tetrahydro-1,5-benzothiazepin-8-yl)oxy)-2-hydroxypropanoic acid]	0.187 µM	–
CCCCC1CN(c2ccccc2)c2cc(SC)c(OCC(OC)C(=O)O)cc2S(=O)(=O)N1C (centres unmarked) [Example 30, 3-((3-butyl-2-methyl-7-(methylthio)-1,1-dioxido-5-phenyl-2,3,4,5-tetrahydro-1,2,5-benzothiadiazepin-8-yl)oxy)-2-methoxypropanoic acid]	0.064 µM	–
